Experimental data published in PubChem BioAssay (NCI).
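Growth conditions: 96-well plates. Treatment: test compound, 48 hours, 5 concentrations. Analysis: linear interpolation between bracketing concentrations; unreached endpoints set to highest concentration. TGI: concentration producing complete growth inhibition.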 Where a SMILES comes first, the peptide text is derived from it. [ ]: non-standard residue; d: D form. The star is where a group is joined. hSer = N[CH](CCO)C(=O)O; Boc = CC(C)(C)OC(=O)*

What was measured:
Assay in all cases: growth of human tumour cells (NCI), 48 h
[1] = system: MDA-N
[2] = system: MCF7 breast
[3] = system: T-47D breast
[4] = system: TK-10 renal
[5] = system: HS 578T breast
[6] = system: 786-0 renal
[7] = system: IGROV1 ovarian
[8] = system: M14 melanoma
[9] = system: A498 renal
[10] = system: CCRF-CEM leukemia
[11] = system: CAKI-1 renal

| Compound | TGI [1] | TGI [2] | TGI [3] | TGI [4] | TGI [5] | TGI [6] | TGI [7] | TGI [8] | TGI [9] | TGI [10] | TGI [11] |
| --- | --- | --- | --- | --- | --- | --- | --- | --- | --- | --- | --- |
| COCCC(NC(=O)C(CC(C)C)NC(=O)OC(C)(C)C)C(N)=O (stereo not drawn) (Boc-Leu-[hSer](Me)-NH2; configuration not given here) | > 100 µM | > 100 µM | > 100 µM | > 100 µM | > 100 µM | > 100 µM | > 100 µM | > 100 µM | > 100 µM | > 100 µM | > 100 µM |
| COc1ccc(C2CC(c3cc4c(C)c(C(=O)c5ccccc5)oc4cc3O)=Nc3ccccc3S2)cc1OC (stereo not given) | > 61.6 µM | > 100 µM | > 85.8 µM | > 100 µM | > 100 µM | > 100 µM | > 100 µM | > 100 µM | > 87 µM | > 100 µM | > 100 µM |
| COc1ccc2nc3ccc(OC)cc3c(S(=O)Cc3ccc([N+](=O)[O-])cc3)c2c1 (stereo not given) | 29.7 µM | 4.26 µM | 4.34 µM | 10.4 µM | 25.9 µM | 4.26 µM | 11.1 µM | 30.6 µM | 36.3 µM | > 21.9 µM | 28.6 µM |
| CN(C)CC1CCC/C(=C\c2ccc(N(C)C)cc2)C1=O (stereo not given) | 19.6 µM | 2.82 µM | 4.11 µM | 4.96 µM | 26 µM | 10.8 µM | 11.8 µM | 9.46 µM | 30.9 µM | > 100 µM | 3.3 µM |
| Fc1cccc(F)c1C1SCC2=Nc3ccccc3CN21 (stereo not given) | > 100 µM | > 100 µM | > 100 µM | > 100 µM | > 100 µM | > 100 µM | > 100 µM | > 100 µM | > 100 µM | > 100 µM | > 100 µM |
